In one series the target is T1, hTLR9 (Homo sapiens, UniProt Q9NR96).
T1 sequence (Q9NR96 26-1032): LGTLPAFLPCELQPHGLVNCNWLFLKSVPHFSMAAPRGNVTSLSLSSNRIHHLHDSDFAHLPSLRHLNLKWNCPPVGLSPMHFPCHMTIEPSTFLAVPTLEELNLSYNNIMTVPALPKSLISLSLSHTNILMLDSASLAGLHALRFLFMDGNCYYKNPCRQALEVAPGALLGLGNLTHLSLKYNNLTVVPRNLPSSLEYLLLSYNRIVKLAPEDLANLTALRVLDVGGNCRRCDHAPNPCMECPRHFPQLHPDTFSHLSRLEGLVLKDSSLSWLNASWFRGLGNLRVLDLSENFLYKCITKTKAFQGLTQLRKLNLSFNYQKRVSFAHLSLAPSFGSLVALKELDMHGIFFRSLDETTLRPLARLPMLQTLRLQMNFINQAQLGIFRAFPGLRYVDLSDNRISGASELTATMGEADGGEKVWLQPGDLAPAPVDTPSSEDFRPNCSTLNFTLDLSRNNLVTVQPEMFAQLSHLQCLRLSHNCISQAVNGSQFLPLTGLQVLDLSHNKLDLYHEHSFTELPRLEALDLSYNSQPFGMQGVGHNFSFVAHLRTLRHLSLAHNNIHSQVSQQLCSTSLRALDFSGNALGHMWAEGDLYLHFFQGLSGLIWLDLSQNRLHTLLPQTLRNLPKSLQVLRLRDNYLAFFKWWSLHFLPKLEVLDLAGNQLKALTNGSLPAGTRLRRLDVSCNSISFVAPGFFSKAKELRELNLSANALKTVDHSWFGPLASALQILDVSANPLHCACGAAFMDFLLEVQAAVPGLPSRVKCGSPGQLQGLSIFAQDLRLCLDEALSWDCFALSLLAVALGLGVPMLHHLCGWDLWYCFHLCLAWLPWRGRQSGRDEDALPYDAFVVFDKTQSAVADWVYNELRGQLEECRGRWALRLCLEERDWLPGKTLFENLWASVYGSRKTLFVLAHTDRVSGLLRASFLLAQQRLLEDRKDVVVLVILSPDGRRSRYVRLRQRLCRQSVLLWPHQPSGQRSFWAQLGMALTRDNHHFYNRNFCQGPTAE
Put plainly: HEK293-Blue-hTLR-9 cells assay (SEAP reporter, ODN2006 stimulation). The format is cell-based. The note with it: HEK293-Blue-hTLR9 cells, ODN2006, 20 hrs; 0.032 is the lowest tested concentration; read-out: HEK/hTLR9 IC50. Summed up:
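HEK293-Blue cells with an NF-κB/AP-1-driven SEAP reporter were exposed to serially diluted compound (1% DMSO final) plus ODN2006 for 20 h at 37 °C. Supernatant SEAP was developed with QUANTI-Blue for 2 h at 37 °C and absorbance read at 620–655 nm; antagonism appears as reduced reporter signal.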

A short description of series [1]: Human microsome stability assay. Type of series: in vitro ADME. Conditions: human liver microsomes, 1 µM test compound, 0.5 mg/mL protein, 37°C, up to 30 minutes. As to the method: Human microsome stability assay
The human microsomal stability assay is used for early assessment of metabolic stability of a test compound in human liver microsomes.
Human liver microsomes (Cat.NO.: 452117, Corning, USA;Cat.NO.:H2610, Xenotech, USA) were preincubated with test compound for 10 minutes at 37°C in 100 mM potassium phosphate buffer, pH 7.4. The reactions were initiated by adding NADPH regenerating system. The final incubation mixtures contained 1 µM test compound, 0.5 mg/mL liver microsomal protein, 1 mM MgCl2, 1 mM NADP, 1 unit/mL isocitric dehydrogenase and 6 mM isocitric acid in 100 mM potassium phosphate buffer, pH 7.4. After incubation times of 0, 3, 6, 9, 15 and 30 minutes at 37°C, 300 µL of cold acetonitrile (including internal standard) was added to 100 µL incubation mixture to terminate the reaction. Following precipitation and centrifugation, the amount of compound remaining in the samples were determined by LC-MS/MS. Controls of no NADPH regenerating system at zero and 30 minutes were also prepared and analyzed. […] Table 3. Human liver microsome stability of the compounds of present invention
In general terms: Liver microsomes are a subcellular fraction often used to study metabolism.

The structures appear in SMILES notation. Where only a bound is given, the exact number is not on record here.

With `C[C@@H]1CN(c2ccc(C#N)c3ncccc23)C[C@H](CNCc2ccccc2)O1` [ER-886509, reference compound], the IC50 at hTLR9 came to 2.08 µM. Further, the “Clearance of Human microsome” value in series [1] was 15.2 mL/min/kg.
The corresponding values for `C[C@@H]1CN(c2ccc(C#N)n3nccc23)C[C@H](CNCc2ccc(N3CCNCC3)cc2)O1` [Example 16, 4-[(2R,6S)-2-methyl-6-[[(4-piperazin-1-ylphenyl)methylamino]methyl]morpholin-4-yl]pyrazolo[1,5-a]pyridine-7-carbonitrile] are 0.082 µM and 7.31 mL/min/kg.
The corresponding values for `C[C@@H]1CN(c2ccc(C#N)c3ncccc23)C[C@H](CN2CCc3cc(N4CCNCC4)ccc3C2)O1` [Example 19, 5-[(2R,6S)-2-methyl-6-[(6-piperazin-1-yl-3,4-dihydro-1H-isoquinolin-2-yl)methyl]morpholin-4-yl]quinoline-8-carbonitrile] are 0.064 µM and 6.17 mL/min/kg.
The corresponding values for `C[C@@H]1CN(c2ccc(C#N)c3ncccc23)C[C@H](CN2Cc3ccc(N4CCNCC4)cc3C2)O1` [Example 21, 5-[(2R,6S)-2-methyl-6-[(5-piperazin-1-ylisoindolin-2-yl)methyl]morpholin-4-yl]quinoline-8-carbonitrile] are 0.055 µM and 6.15 mL/min/kg.
For the compound `C[C@@H]1CN(c2ccc(C#N)c3ncccc23)C[C@H](CN2Cc3ccc(N4CC5(CCN5)C4)cc3C2)O1` [Example 55, 5-[(2S,6R)-2-[[5-(1,6-diazaspiro[3.3]heptan-6-yl)isoindolin-2-yl]methyl]-6-methyl-morpholin-4-yl]quinoline-8-carbonitrile], the IC50 at hTLR9 came to 0.084 µM. Further, the “Clearance of Human microsome” value in series [1] was found to be 7.09 mL/min/kg.
The corresponding values for `C[C@@H]1CN(c2ccc3c(c2)CN(C[C@H]2CN(c4ccc(C#N)c5ncccc45)C[C@@H](C)O2)C3)CCN1` [Example 62, 5-[(2R,6S)-2-methyl-6-[[5-[(3R)-3-methylpiperazin-1-yl]isoindolin-2-yl]methyl]morpholin-4-yl] quinoline-8-carbonitrile] are 0.062 µM and 6.39 mL/min/kg.
For the compound `C[C@@H]1CN(c2ccc(C#N)c3ncccc23)C[C@H](CNCc2ccc(N3CCNCC3)cc2)O1` [Example 86, 5-[(2R,6S)-2-methyl-6-[[(4-piperazin-1-ylphenyl)methylamino]methyl]morpholin-4-yl] quinoline-8-carbonitrile], on hTLR9, the IC50 is less than 0.032 µM.
Same read-out and setting: the same measure for `C[C@@H]1CN(c2ccc(C#N)n3nccc23)C[C@H](CN2CCc3cnccc3C2)O1` [Example R1, 4-[(2S,6R)-2-(3,4-dihydro-1H-2,6-naphthyridin-2-ylmethyl)-6-methyl-morpholin-4-yl]pyrazolo[1,5-a]pyridine-7-carbonitrile, reference compound]: 50.6 µM; for `C[C@@H]1CN(c2ccc(C#N)n3nccc23)C[C@H](CN2Cc3ccncc3C2)O1` [Example R2, 4-[(2S,6R)-2-(1,3-dihydropyrrolo[3,4-c]pyridin-2-ylmethy1)-6-methyl-morpholin-4-yl]pyrazolo[1,5-a]pyridine-7-carbonitrile, reference compound]: 47 µM.
Regarding `C[C@@H]1CN(c2ccc(C#N)c3ncccc23)C[C@H](CN2Cc3ccccc3C2)O1` [Example R3, 5-[(2S,6R)-2-(isoindolin-2-ylmethyl)-6-methyl-morpholin-4-yl]quinoline-8-carbonitrile, reference compound], on hTLR9, the IC50 is 5.54 µM. In addition, the “Clearance of Human microsome” value in series [1] was found to be 15.4 mL/min/kg.
